Results as given in patent US20140079836A1, “METHODS AND COMPOSITIONS FOR ALTERING HEALTH, WELLBEING, AND LIFESPAN” (LifeSpan Extension, LLC, priority 2008, published 2014).
Values joined by “and” are separate entries in the source; they are usually repeats but may differ in a detail not shown here. Equal values may be shown once.

Test system: genes involved in longevity (Array 1)
Experiment: Custom RT-PCR microarray (Array 1) gene expression in skin fibroblasts, UVB/UVA1
Format: cell-based, human
Description: Seeding of cells: On Day 1, each cell culture was seeded into 6 well cluster dishes at ˜1.5×10^5 cells in 4 mls medium per well. Three wells were seeded per test condition or control.
Experimental phase: On Day 3, wells were washed 1× with 2 mls medium, fed back 2 mls medium without fetal bovine serum and preincubated for 30-60 minutes before challenge with test or control conditions. After the preincubation, medium was aspirated from the wells and 2.5 mls of test or control condition in medium with 1% fetal bovine serum was pipetted into the appropriate wells.
(3) UVA1, UVB exposed and unexposed cells without test condition were used as controls. The experimental phase ended at 24 hours post UV exposure. Cells from each test and control parameter were then prepped for RNA isolation as described below.
UVB/UVA1 exposure: Cells exposed to UV received 200 mJ/cm^2 UVB/1 MED UVA1 using Thermo Oriel solar simulator model SP66923-3056. Cells were exposed from the bottom of the culture dish. The UV dose delivered to the cells was adjusted for interference from the plastic in the culture dish.
Preparation of RNA: The RNA was isolated using the Qiagen RNEasy Plus Mini Kit according to the manufacturer's protocol which can be found on the World Wilde Web at qiagen.com/literature/Defaultaspx?Term=&Language=EN&LiteratureType=4& ProductCategory=10162. The RNA was quantified and examined for purity using the 260/280 nm read method in a μ Quant spectrophotometer before use in the array.
Creation and Performance of a Custom Microarray (“Array 1”): Through the Custom Array design service of Superarray Bioscience Corporation, a 96 well RT-PCR microarray (“Array 1”) was developed to illustrate genetic responses in cells treated as above for specific genes involved in longevity as well as the relevant quality controls. The array was performed in compliance with manufacturer's guidelines and by recommended manufacturer's protocol as can be found on the World Wilde Web at superarray.com/Manual/perarrayplate.pdf
(§1) Custom Microarray Results: The results from the microarrays were determined using the delta CT method which uses comparisons of control genes and threshold cycles of genes of interest to generate relative expression values. The full set of experimental conditions was cross referenced and the data is provided herewith in DATA TABLE 3.
Preparation of RNA: The RNA was isolated using the Qiagen RNEasy Plus Mini Kit according to the manufacturer's protocol which can be found on the World Wide Web at qiagen.com/literature/Default. aspx?Term=&Language=EN&LiteratureType=4&ProductCategory=10162.
The RNA was quantified and examined for purity using the 260/280 nm read method in a μ Quant spectrophotometer before use in the array.
Creation and Performance of the Custom Microarray: Through the Custom Array design service of Superarray Bioscience Corporation, a 96 well RT-PCR Microarray was developed to illustrate genetic responses in cells treated as above for specific genes involved in longevity as well as the relevant quality controls. The array was performed in compliance with manufacturer's guidelines and by recommended manufacturer's protocol as can be found on the World Wide Web at superarray.com/Manual/perarrayplate.pdf.
as §1, with “4.” for “3.”
as §1, with “5. […]” for “3.”

[1] = donor four cell line, UVB, agent 4 hr incubation
[2] = donor four cell line, UVB, agent continuous incubation
[3] = donor three idebenone + UVB 4 hr Incubation
[4] = donor three idebenone + UVB Continuous Incubation
[5] = donor three idebenone + UVB vs. Green tea + UVB 4 hr Incubation
[6] = donor three vs. donor two idebenone + UVB 4 hr Incubation
[7] = donor three vs. donor two idebenone + UVB Continuous Incubation

COC1=C(OC)C(=O)C(CCCCCCCCCCO)=C(C)C1=O [Idebenone, 6-(10-hydroxydecyl)-2,3-dimethoxy-5-methyl-1,4-benzoquin-one]
IFI44 expression [1]: 2.63
NADSYN1 expression [1]: 2.21
NFKB1 expression [1]: 3.24
PARP1 Expression [1]: 4.27
TERT expression [1]: 8.54
IFI44 expression [2]: 2.98
TERT expression [2]: 4.36
TERT expression (donor one cell line, UVB, agent continuous incubation): 8.50
ACE expression fold change [3]: 2.29
ACTB expression fold change [3]: −2.01
APOE expression fold change [3]: −1.32
BAX expression fold change [3]: 1.41
BCL2 expression fold change [3]: 4.13
CASP2 expression fold change [3]: 1.31
CASP9 expression fold change [3]: 2.06
CCL4L1 expression fold change [3]: 9.82
CLK1 expression fold change [3]: 1.41
COX1 expression fold change [3]: −1.11
CREBBP expression fold change [3]: −1.32
CYP19A1 expression fold change [3]: 6.94
DDC expression fold change [3]: 4.74
GAPDH expression fold change [3]: −1.04
GH1 expression fold change [3]: 3.35
HIGX1A fold change [3]: 1.93
HLA-DRA expression fold change [3]: 4.27
HPRT1 expression fold change [3]: 3.47
HSPA1A expression fold change [3]: 1.68
HSPA1B expression fold change [3]: 1.99
HSPA1L expression fold change [3]: −1.42
IFI44 expression fold change [3]: 2.63
IGF1 expression fold change [3]: 4.13
IGF2 expression fold change [3]: −1.24
IL1A expression fold change [3]: 2.54
IL6 expression fold change [3]: 1.27
IL10 expression fold change [3]: 1.46
KRAS expression fold change [3]: 1.27
MAPK14 expression fold change [3]: 1.46
NADSYN1 expression fold change [3]: 2.21
NFKB1 expression fold change [3]: 3.24
NOS2A expression fold change [3]: 16.51
PARP1 expression fold change [3]: 4.27
PARP2 expression fold change [3]: 3.72
PPARG expression fold change [3]: 1.99
PPC fold change [3]: 1.07 and 1.23
PTGS2 expression fold change [3]: 2.63
RTC fold change [3]: 3.13 and 4.74
SHC1 expression fold change [3]: 1.19
SIRT1 expression fold change [3]: 1.41
SOD1 expression fold change [3]: 1.41
SOD2 expression fold change [3]: 1.07
TEP1 expression fold change [3]: 1.23
TERT expression fold change [3]: 8.54
TNF expression fold change [3]: −1.19
TP53 expression fold change [3]: −1.15
ACE expression fold change [4]: 2.34
ACTB expression fold change [4]: −3.93
APOE expression fold change [4]: 1.49
BAX expression fold change [4]: 2.26
BCL2 expression fold change [4]: 7.09
CASP2 expression fold change [4]: 1.09
CASP9 expression fold change [4]: 5.19
CCL4L1 expression fold change [4]: 10.02
CLK1 expression fold change [4]: 1.71
COX1 expression fold change [4]: 1.05
CREBBP expression fold change [4]: −1.21
CYP19A1 expression fold change [4]: 5.56
DDC expression fold change [4]: 4.84
GAPDH expression fold change [4]: −1.83
GH1 expression fold change [4]: 2.18
HIGX1A fold change [4]: 1.71
HLA-DRA expression fold change [4]: 3.93
HPRT1 expression fold change [4]: 1.83
HSPA1A expression fold change [4]: 1.34
HSPA1B expression fold change [4]: 1.71
HSPA1L expression fold change [4]: −5.37
IFI44 expression fold change [4]: 2.98
IGF1 expression fold change [4]: 3.42
IGF2 expression fold change [4]: −1.09
IL1A expression fold change [4]: 1.97
IL6 expression fold change [4]: −1.83
IL10 expression fold change [4]: 1.13
KRAS expression fold change [4]: 1.90
MAPK14 expression fold change [4]: 1.65
NADSYN1 expression fold change [4]: 1.44
NFKB1 expression fold change [4]: 2.34
NOS2A expression fold change [4]: 3.80
PARP1 expression fold change [4]: 1.65
PARP2 expression fold change [4]: 3.42
PPARG expression fold change [4]: 3.19
PPC fold change [4]: 1.25 and 1.21
PTGS2 expression fold change [4]: 1.83
SHC1 expression fold change [4]: −1.49
SIRT1 expression fold change [4]: 1.77
SOD1 expression fold change [4]: −1.71
SOD2 expression fold change [4]: 1.17
TEP1 expression fold change [4]: 1.13
TERT expression fold change [4]: 4.36
TNF expression fold change [4]: −1.09
TP53 expression fold change [4]: 1.21
ACE expression fold change [5]: −1.11
ACTB expression fold change [5]: −1.57
APOE expression fold change [5]: 1.41
BAX expression fold change [5]: −2.23
BCL2 expression fold change [5]: −1.15
CASP2 expression fold change [5]: −2.47
CASP9 expression fold change [5]: −1.94
CCL4L1 expression fold change [5]: 9.48
CLK1 expression fold change [5]: −1.11
COX1 expression fold change [5]: −1.81
CREBBP expression fold change [5]: −1.00
CYP19A1 expression fold change [5]: 9.48
DDC expression fold change [5]: 42.08
GAPDH expression fold change [5]: −1.57
GH1 expression fold change [5]: 16.51
HIGX1A fold change [5]: 17.09
HLA-DRA expression fold change [5]: 18.96
HPRT1 expression fold change [5]: 1.41
HSPA1A expression fold change [5]: −1.87
HSPA1B expression fold change [5]: −2.08
HSPA1L expression fold change [5]: 1.80
IFI44 expression fold change [5]: −1.28
IGF1 expression fold change [5]: 8.85
IGF2 expression fold change [5]: −1.15
IL1A expression fold change [5]: 7.70
IL6 expression fold change [5]: −1.04
IL10 expression fold change [5]: 4.74
KRAS expression fold change [5]: −1.69
MAPK14 expression fold change [5]: −1.63
NADSYN1 expression fold change [5]: −1.63
NFKB1 expression fold change [5]: −1.04
NOS2A expression fold change [5]: 34.18
PARP1 expression fold change [5]: −1.57
PARP2 expression fold change [5]: 7.44
PPARG expression fold change [5]: 1.74
PTGS2 expression fold change [5]: 2.14
SHC1 expression fold change [5]: −1.11
SIRT1 expression fold change [5]: −1.15
SOD1 expression fold change [5]: −1.32
SOD2 expression fold change [5]: −1.24
TEP1 expression fold change [5]: −1.00
TERT expression fold change [5]: 7.97
TNF expression fold change [5]: 7.44
TP53 expression fold change [5]: −1.32
ACE expression fold change [6]: 1.16
ACTB expression fold change [6]: 1.43
APOE expression fold change [6]: −1.06
BAX expression fold change [6]: 1.95
BCL2 expression fold change [6]: 1.76
CASP2 expression fold change [6]: 1.33
CASP9 expression fold change [6]: 1.58
CCL4L1 expression fold change [6]: 1.08
CLK1 expression fold change [6]: −1.22
COX1 expression fold change [6]: 1.12
CREBBP expression fold change [6]: 1.70
CYP19A1 expression fold change [6]: 1.01
DDC expression fold change [6]: 1.08
GAPDH expression fold change [6]: 1.16
GH1 expression fold change [6]: −1.06
HIGX1A fold change [6]: −1.50
HLA-DRA expression fold change [6]: 1.38
HPRT1 expression fold change [6]: 1.38
HSPA1A expression fold change [6]: 2.16
HSPA1B expression fold change [6]: 2.32
HSPA1L expression fold change [6]: −1.14
IFI44 expression fold change [6]: 1.53
IGF1 expression fold change [6]: −1.79
IGF2 expression fold change [6]: −1.03
IL1A expression fold change [6]: −1.40
IL6 expression fold change [6]: −6.01
IL10 expression fold change [6]: 1.76
KRAS expression fold change [6]: 1.76
MAPK14 expression fold change [6]: 1.48
NADSYN1 expression fold change [6]: 1.08
NFKB1 expression fold change [6]: 1.01
NOS2A expression fold change [6]: −1.56
PARP1 expression fold change [6]: 2.32
PARP2 expression fold change [6]: 1.16
PPARG expression fold change [6]: 1.29
PTGS2 expression fold change [6]: 2.95
SHC1 expression fold change [6]: 1.20
SIRT1 expression fold change [6]: 1.53
SOD1 expression fold change [6]: 1.24
SOD2 expression fold change [6]: −1.35
TEP1 expression fold change [6]: 1.76
TERT expression fold change [6]: −1.14
TNF expression fold change [6]: 1.95
TP53 expression fold change [6]: −1.31
ACE expression fold change [7]: 1.40
ACTB expression fold change [7]: 4.88
APOE expression fold change [7]: −2.48
BAX expression fold change [7]: −1.64
BCL2 expression fold change [7]: −1.53
CASP2 expression fold change [7]: −1.38
CASP9 expression fold change [7]: −1.88
CCL4L1 expression fold change [7]: −2.09
CLK1 expression fold change [7]: −1.04
COX1 expression fold change [7]: −2.32
CREBBP expression fold change [7]: 1.14
CYP19A1 expression fold change [7]: −2.48
DDC expression fold change [7]: −1.58
GAPDH expression fold change [7]: 2.13
GH1 expression fold change [7]: 1.40
HIGX1A fold change [7]: −2.16
HLA-DRA expression fold change [7]: 1.31
HPRT1 expression fold change [7]: 2.20
